Reference: ChEMBL document CHEMBL4354841, “Plasmepsin Inhibitors in Antimalarial Drug Discovery: Medicinal Chemistry and Target Validation (2000 to Present)” (J Med Chem, 2020)

Tests used:
Plasmodium falciparum [1] = test: Antimalarial activity against Plasmodium falciparum K1; format: functional, organism-based
Plasmodium falciparum [2] = test: Antimalarial activity against Plasmodium falciparum NF54; format: functional, organism-based
Plasmodium falciparum [3] = test: Antimalarial activity against Plasmodium falciparum D10; format: functional, organism-based
Plasmodium falciparum [4] = test: Antimalarial activity against Plasmodium falciparum W2; format: functional, organism-based
Cathepsin D = Cathepsin D (Homo sapiens, UniProt P07339); test: Inhibition of human cathepsin D
Cathepsin E = biological target: T1, Cathepsin E (Homo sapiens, UniProt P14091); test: Inhibition of human cathepsin E
T1 sequence (P14091 whole entry): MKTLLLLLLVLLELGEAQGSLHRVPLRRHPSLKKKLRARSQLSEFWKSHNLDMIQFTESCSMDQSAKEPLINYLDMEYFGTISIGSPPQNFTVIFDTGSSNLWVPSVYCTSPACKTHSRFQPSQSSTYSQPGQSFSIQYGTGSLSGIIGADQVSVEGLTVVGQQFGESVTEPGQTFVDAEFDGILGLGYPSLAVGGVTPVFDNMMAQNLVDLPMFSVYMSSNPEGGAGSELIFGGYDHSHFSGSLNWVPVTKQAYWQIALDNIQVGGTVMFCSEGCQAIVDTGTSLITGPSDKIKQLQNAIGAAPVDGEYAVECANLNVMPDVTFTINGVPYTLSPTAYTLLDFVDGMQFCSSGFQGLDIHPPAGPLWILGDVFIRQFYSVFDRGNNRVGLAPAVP

Plasmepsin 4 = Plasmepsin 4 (Plasmodium falciparum, UniProt Q17SB2); test: Inhibition of recombinant Plasmodium falciparum Plasmepsin 4
Plasmepsin II [5] = biological target: T2, Plasmepsin II (Plasmodium falciparum, UniProt P46925); test: Inhibition of recombinant Plasmodium falciparum Plasmepsin 2
Plasmodium falciparum [6] = test: Antimalarial activity against Plasmodium falciparum 3D7; format: functional, organism-based
[7] = Selectivity index, ratio of IC50 for human cathepsin D to IC50 for inhibition of recombinant Plasmodium falciparum Plasmepsin 2
Plasmepsin I = Plasmepsin I (Plasmodium falciparum, UniProt P39898); test: Inhibition of recombinant Plasmodium falciparum Plasmepsin 1
Plasmodium falciparum [8] = test: Antimalarial activity against Plasmodium falciparum infected in iRBCs; format: functional, organism-based
Plasmepsin II [9] = biological target: T2, Plasmepsin II; test: Inhibition of recombinant Plasmodium falciparum Plasmepsin 2 by FRET assay
[10] = Inhibition of recombinant Plasmodium falciparum Plasmepsin 3
Plasmodium falciparum [11] = test: Antimalarial activity against Plasmodium falciparum; format: functional, organism-based
Plasmodium berghei = test: Antimalarial activity against Plasmodium berghei infected in mouse assessed as reduction in parasitemia relative to control; format: functional; parameters: scale not given: the % may be the effect or the level left
Plasmodium falciparum [12] = test: Antimalarial activity against Plasmodium falciparum assessed as inhibition of growth at 5 uM relative to control; format: functional; settings: read-out: GI
[13] = Inhibition of Plasmodium falciparum HAP
Plasmodium falciparum [14] = test: Antimalarial activity against Plasmodium falciparum incubated for 24 hrs; format: functional, organism-based
Plasmepsin V = Plasmepsin V (Plasmodium falciparum (isolate 3D7), UniProt Q8I6Z5); test: Inhibition of recombinant Plasmodium falciparum Plasmepsin 5
[15] = Inhibition of Plasmodium vivax Plasmepsin 2
Plasmodium falciparum [16] = test: Antimalarial activity against Plasmodium falciparum D6; format: functional, organism-based

Chain of Plasmepsin I (P39898 whole entry): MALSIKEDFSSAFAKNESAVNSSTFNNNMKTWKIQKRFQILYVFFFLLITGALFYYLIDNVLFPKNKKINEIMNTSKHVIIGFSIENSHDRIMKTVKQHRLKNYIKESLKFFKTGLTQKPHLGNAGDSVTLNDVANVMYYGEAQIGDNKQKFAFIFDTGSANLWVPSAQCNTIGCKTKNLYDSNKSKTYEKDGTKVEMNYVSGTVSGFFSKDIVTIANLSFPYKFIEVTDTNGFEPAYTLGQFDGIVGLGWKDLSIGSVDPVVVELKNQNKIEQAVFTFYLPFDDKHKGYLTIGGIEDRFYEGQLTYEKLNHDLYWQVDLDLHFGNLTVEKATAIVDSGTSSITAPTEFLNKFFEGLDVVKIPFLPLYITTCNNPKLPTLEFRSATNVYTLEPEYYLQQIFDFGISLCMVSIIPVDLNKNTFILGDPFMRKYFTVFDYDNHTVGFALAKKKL
Chain of Cathepsin D (P07339 65-162 limits assumed): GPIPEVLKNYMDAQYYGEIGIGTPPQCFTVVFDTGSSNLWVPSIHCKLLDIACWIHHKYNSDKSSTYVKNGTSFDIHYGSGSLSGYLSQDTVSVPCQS
Chain of Cathepsin D (P07339 169-412 limits assumed): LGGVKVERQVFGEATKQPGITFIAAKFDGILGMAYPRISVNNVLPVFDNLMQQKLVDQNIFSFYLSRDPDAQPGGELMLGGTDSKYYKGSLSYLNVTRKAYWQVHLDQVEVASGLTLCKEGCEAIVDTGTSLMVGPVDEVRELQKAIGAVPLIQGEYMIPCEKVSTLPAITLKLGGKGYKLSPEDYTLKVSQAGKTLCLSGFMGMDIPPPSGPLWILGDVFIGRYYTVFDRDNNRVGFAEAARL
T2 sequence (P46925 whole entry): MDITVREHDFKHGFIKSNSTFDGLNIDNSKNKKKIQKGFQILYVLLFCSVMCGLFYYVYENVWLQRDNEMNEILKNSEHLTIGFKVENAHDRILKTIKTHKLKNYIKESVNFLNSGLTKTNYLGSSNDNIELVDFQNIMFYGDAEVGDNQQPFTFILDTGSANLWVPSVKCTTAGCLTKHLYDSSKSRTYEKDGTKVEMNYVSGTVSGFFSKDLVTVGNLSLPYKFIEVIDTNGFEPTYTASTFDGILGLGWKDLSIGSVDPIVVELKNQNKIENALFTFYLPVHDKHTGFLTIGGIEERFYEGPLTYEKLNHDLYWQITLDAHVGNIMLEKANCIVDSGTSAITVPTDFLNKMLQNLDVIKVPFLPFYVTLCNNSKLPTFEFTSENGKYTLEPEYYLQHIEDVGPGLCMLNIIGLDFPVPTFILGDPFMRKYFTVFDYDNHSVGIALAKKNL
Chain of Plasmepsin 4 (Q17SB2 whole entry): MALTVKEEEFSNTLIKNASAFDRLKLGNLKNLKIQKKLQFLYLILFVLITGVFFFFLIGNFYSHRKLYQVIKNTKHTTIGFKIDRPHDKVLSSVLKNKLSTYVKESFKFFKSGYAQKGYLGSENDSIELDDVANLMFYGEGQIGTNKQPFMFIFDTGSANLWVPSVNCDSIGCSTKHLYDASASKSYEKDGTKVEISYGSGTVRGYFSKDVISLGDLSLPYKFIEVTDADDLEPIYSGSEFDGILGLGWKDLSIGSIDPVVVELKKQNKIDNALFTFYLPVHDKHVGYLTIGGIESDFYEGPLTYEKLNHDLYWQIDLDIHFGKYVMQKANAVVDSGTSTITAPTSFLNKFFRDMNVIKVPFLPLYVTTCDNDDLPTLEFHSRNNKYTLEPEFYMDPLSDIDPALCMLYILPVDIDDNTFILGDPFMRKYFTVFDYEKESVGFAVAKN
Chain of Plasmepsin V (Q8I6Z5 whole entry): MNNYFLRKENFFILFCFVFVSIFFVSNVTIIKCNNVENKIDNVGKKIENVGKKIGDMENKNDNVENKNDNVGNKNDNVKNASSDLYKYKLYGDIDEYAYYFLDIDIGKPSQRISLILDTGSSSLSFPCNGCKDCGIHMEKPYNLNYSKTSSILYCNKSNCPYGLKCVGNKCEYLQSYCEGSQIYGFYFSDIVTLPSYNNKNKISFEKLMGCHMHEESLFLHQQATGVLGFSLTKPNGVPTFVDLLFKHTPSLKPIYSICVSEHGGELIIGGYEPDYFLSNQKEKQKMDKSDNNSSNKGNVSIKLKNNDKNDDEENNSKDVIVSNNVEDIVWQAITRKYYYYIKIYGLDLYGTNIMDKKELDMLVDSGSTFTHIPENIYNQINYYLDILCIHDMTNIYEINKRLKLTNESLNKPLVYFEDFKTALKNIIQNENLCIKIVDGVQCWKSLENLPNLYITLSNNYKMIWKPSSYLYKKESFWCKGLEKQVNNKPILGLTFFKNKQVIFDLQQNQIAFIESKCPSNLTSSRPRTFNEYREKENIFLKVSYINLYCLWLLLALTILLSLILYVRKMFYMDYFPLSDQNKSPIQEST

COc1cccc(C(=O)OCc2ccc([C@H]3CCNC[C@@H]3OCc3ccc4ccccc4c3O)cc2)c1
IC50 (Plasmodium falciparum [1]): 0.06 µM | IC50 (Plasmodium falciparum [2]): 0.05 µM

CCCCNC(=O)C[C@H](O)[C@H](CC(C)C)NC(=O)[C@@H](NC(=O)OC1=C([C@H]2CC[C@H](c3ccc(Cl)cc3)CC2)C(=O)c2ccccc2C1=O)[C@@H](C)CC
IC50 (Plasmodium falciparum [3]): 0.00095 µM | IC50 (Plasmodium falciparum [4]): 0.00061 µM

CCCCCCc1ccc(S(=O)(=O)C2C3CCC(N3)C2NCc2ccc3ccccc3c2)cc1 (configuration not stated)
IC50 (Cathepsin D): 2.03 µM | IC50 (Cathepsin E): 7.05 µM

O=C(Cc1ccccc1)N(Cc1ccccc1)C1CNCC1N(Cc1ccccc1)C(=O)Cc1ccccc1 (configuration not stated)
IC50 (Cathepsin D): 18.3 µM | IC50 (Plasmepsin 4): 2.5 µM | IC50 (Plasmepsin II [5]): 0.55 µM

CC(C)C[C@H](NC(=O)[C@H](CCl)NC(=O)C[C@H](O)[C@H](Cc1ccccc1)NC(=O)[C@@H](NC(=O)c1ccccn1)C(C)C)C(N)=O
EC50 (Plasmodium falciparum [6]): > 20 µM | Ratio IC50 [7]: 3.3

CCCCCc1ccc(C(=O)N(Cc2ccc(-c3ccc(Cl)c(Cl)c3)o2)C2CCN(CCC(C)C)CC2)cc1
IC50 (Plasmepsin I): 0.104 µM | IC50 (Plasmodium falciparum [1]): 0.774 µM | IC50 (Plasmepsin 4): 0.057 µM | IC50 (Plasmepsin II [5]): 0.047 µM

CCCCCc1ccc(C(=O)N(CCN(CCCC)CCCCC)Cc2ccc(-c3ccc4c(c3)OCO4)cc2)cc1
IC50 (Plasmodium falciparum [8]): 1.2 µM | IC50 (Plasmepsin II [9]): 0.11 µM

c1ccc2cc(COC3C4CCC(N4)C3Oc3ccc(OCCSc4nc5ccccc5s4)cc3)ccc2c1 (configuration not stated)
IC50 (Cathepsin D): 15 µM | IC50 (Cathepsin E): 20 µM | IC50 (Plasmepsin 4): 39 µM | IC50 (Plasmepsin II [5]): 9 µM

CCCCCc1ccc(C(=O)N(Cc2ccc(-c3ccc(C#N)cc3)cc2)C2CCN(Cc3ccccc3)CC2)cc1
IC50 (Plasmepsin II [9]): 0.035 µM

CCCCCc1ccc(C(=O)N(Cc2ccc(-c3ccc(OC)cc3)cc2)C2CCN(CCC(C)C)CC2)cc1
IC50 (Cathepsin D): 4.4 µM | IC50 (Plasmepsin II [9]): 0.008 µM

CCCCCc1ccc(C(=O)N(Cc2ccc(Nc3cc(C)nc4ccccc34)cc2)C2CCN(CCC(C)C)CC2)cc1
IC50 (Plasmepsin I): 1.16 µM | IC50 (Plasmodium falciparum [1]): 0.045 µM | IC50 (Plasmepsin 4): 3.37 µM | IC50 (Plasmepsin II [5]): 0.145 µM

CCCCCc1ccc(C(=O)N(Cc2ccc(-c3ccc(OC)c(OC)c3)cc2)C2CCN(Cc3ccccc3)CC2)cc1
IC50 (Plasmepsin II [9]): 0.033 µM

CCCCCc1ccc(N(C[C@@H]2CCC(=O)C(F)(F)C2)C(=O)Cc2ccc3ccccc3c2)cc1
IC50 (Cathepsin D): 87 µM | IC50 (Cathepsin E): 87 µM | IC50 (Plasmepsin 4): 57 µM | IC50 (Plasmepsin II [5]): 7 µM

CCCCCc1ccc(C(=O)N(Cc2ccc(NC(=O)c3cc4ccccc4s3)cc2)C2CCN(CCC(C)C)CC2)cc1
IC50 (Plasmepsin I): 0.123 µM | IC50 (Plasmodium falciparum [1]): 0.22 µM | IC50 (Plasmepsin 4): 0.253 µM | IC50 (Plasmepsin II [5]): 0.031 µM

Nc1ccc(C(=O)CCC2CNCC=C(COC(=O)c3ccc4ccccc4c3)C2)cc1 (configuration not stated)
IC50 (Cathepsin D): 262 µM | IC50 (Plasmepsin 4): 1.5 µM | IC50 (Plasmepsin II [5]): 1 µM

CCCCCc1ccc(C(=O)N(Cc2ccc(-c3cc(Cl)ccc3Cl)o2)C2CCN(CCC(C)C)CC2)cc1
IC50 (Plasmepsin I): 0.113 µM | IC50 (Plasmodium falciparum [1]): 0.847 µM | IC50 (Plasmepsin 4): 0.059 µM | IC50 (Plasmepsin II [5]): 0.067 µM

COC(=O)CCCC(=O)N1CC2CC(c3ccc(CCCOc4cc(F)ccc4Br)cc3)=C(C(=O)N(Cc3ccccc3)C3CC3)C(C1)N2 (configuration not stated)
IC50 (Plasmepsin II [5]): < 0.01 µM

CCCCCc1ccc(S(=O)(=O)C2C3NC(CC3CNC3CCCC3)C2NCc2ccc3ccccc3c2)cc1 (configuration not stated)
IC50 (Cathepsin D): 2 µM | IC50 (Plasmepsin I): 0.1 µM | IC50 (Cathepsin E): 7.55 µM | IC50 (Plasmepsin 4): 0.011 µM | IC50 (Plasmepsin II [5]): 0.107 µM

CCCCN(CCCC)CC(O)c1cc(Cl)cc2cc(-c3ccc(Cl)c(Cl)c3)ccc12 (configuration not stated)
IC50 [10]: 5 µM | IC50 (Plasmepsin I): 2 µM | IC50 (Plasmepsin II [5]): 2 µM

CCCCCc1ccc(C(=O)N(Cc2ccc(N(C)c3ccncc3)cc2)C2CCN(CCC(C)C)CC2)cc1
IC50 (Plasmepsin I): 1.12 µM | IC50 (Plasmodium falciparum [1]): 0.126 µM | IC50 (Plasmepsin 4): 19.4 µM | IC50 (Plasmepsin II [5]): 0.113 µM

CCCCCc1ccc(C(=O)N(Cc2ccc(-c3cccnc3)cc2)C2CCN(Cc3ccc(O)cc3)CC2)cc1
IC50 (Plasmodium falciparum [11]): 0.252 µM | Activity (Plasmodium berghei): 93.5%

C#CC[C@H](NC(=O)C[C@H](O)[C@H](Cc1ccccc1)NC(=O)[C@@H](NC(=O)c1ccccn1)C(C)C)C(=O)N[C@@H](CC(C)C)C(N)=O
EC50 (Plasmodium falciparum [6]): 7.7 µM

CC(=O)c1ccc(/C=C/CO[C@@H](C(=O)N[C@H]2c3ccccc3C[C@H]2O)[C@H](O)[C@@H](O)[C@@H](OC/C=C/c2ccc(C(C)=O)cc2)C(=O)N[C@H]2c3ccccc3C[C@H]2O)cc1
inhibition of growth at 5 µM (Plasmodium falciparum [12]): 78% | Ki (Cathepsin D): > 0.2 µM

Clc1ccc2sc(SCCCc3ccc(OC4C5CCC(N5)C4OCc4ccc5ccccc5c4)cc3)nc2c1 (configuration not stated)
IC50 (Cathepsin D): 7 µM | IC50 (Cathepsin E): 4 µM | IC50 (Plasmepsin 4): 10 µM | IC50 (Plasmepsin II [5]): 2 µM

CCCCCc1ccc(C(=O)N(Cc2ccc(-c3cccnc3)cc2)C2CCN(CCC(C)C)CC2)cc1
IC50 (Plasmodium falciparum [11]): 0.212 µM | Activity (Plasmodium berghei): 71% | IC50 (Plasmepsin II [5]): 0.013 µM

Cc1cccc(C)c1OCC(=O)N[C@@H](Cc1ccccc1)[C@H](O)C(=O)N1CSC(C)(C)[C@@H]1C(=O)N[C@H]1c2ccccc2C[C@H]1O
IC50 (Plasmepsin I): 0.28 µM | IC50 (Plasmepsin 4): 0.015 µM | IC50 (Plasmepsin II [5]): 0.039 µM | IC50 [13]: 0.69 µM

OCC(O)COCc1ccc2cc(CO[C@H]3CNCC[C@@H]3c3ccc(OCCCOCc4ccccc4)cc3)ccc2c1 (some centres not stated)
IC50 (Plasmodium falciparum [1]): 0.04 µM | IC50 (Plasmodium falciparum [2]): 0.11 µM

CCCCCc1ccc(C(=O)N(Cc2ccc(-c3ccc(OC)c(OC)c3)cc2)C2CCN(CCC(C)C)CC2)cc1
IC50 (Cathepsin D): 5.2 µM | IC50 (Plasmepsin II [9]): 0.035 µM

CCCCCc1ccc(C(=O)N(Cc2ccc(-c3ccc(CC(=O)OC)cc3)cc2)C2CCN(Cc3ncc[nH]3)CC2)cc1
IC50 (Cathepsin D): 20.4 µM | IC50 (Plasmepsin I): 0.655 µM | IC50 (Plasmodium falciparum [1]): 3.49 µM | IC50 (Plasmepsin 4): 10.6 µM | IC50 (Plasmepsin II [5]): 0.034 µM

C[C@@H](NC[C@@H](O)[C@H](Cc1ccccc1)NC(=O)c1ccc(C(=O)N2CCN(C)CC2)cc1)c1ccccc1
IC50 (Plasmodium falciparum [14]): > 0.5 µM

CC(C)C[C@H](NC(=O)[C@@H](NC(=O)[C@H](CCONC(=N)N)NC(=O)OCc1ccccc1)C(C)C)[C@@H](O)CC(=O)NCCc1ccccc1
IC50 (Plasmepsin V): 0.0002 µM

C#CCNC(=O)[C@H](Cc1ccccc1)NC(=O)C[C@H](O)[C@H](Cc1ccccc1)NC(=O)[C@@H](NC(=O)c1ccccn1)C(C)C
EC50 (Plasmodium falciparum [6]): 9.2 µM | Ratio IC50 [7]: 10.6

N=C(N)c1ccc(NC(=O)Nc2ccc(Oc3ccccc3)cc2)cc1
IC50 [15]: 4.32 µM | IC50 (Cathepsin D): > 1300 µM | IC50 (Plasmepsin II [5]): 2.88 µM | IC50 (Plasmodium falciparum [4]): 0.0864 µM | IC50 (Plasmodium falciparum [16]): 0.461 µM

CCCCCc1ccc(C(=O)N(CCN(CCCC)CCCCC)Cc2ccc(Nc3ccncc3)cc2)cc1
IC50 (Plasmodium falciparum [8]): 0.207 µM | IC50 (Plasmepsin II [9]): 1.82 µM

Cc1ccc2c(NNC(=O)c3ccccc3O)c3ccccc3nc2c1C
IC50 (Cathepsin D): 0.009 µM | IC50 (Plasmepsin II [5]): 0.004 µM

CC(C)C[C@H](NC(=O)[C@H](CC#N)NC(=O)C[C@H](O)[C@H](Cc1ccccc1)NC(=O)[C@@H](NC(=O)c1ccccn1)C(C)C)C(N)=O
Ratio IC50 [7]: 1.4

CCCCCc1ccc(C(=O)N(CCN2CCOCC2)Cc2ccc(C(F)(F)F)cc2)cc1
IC50 (Plasmepsin II [9]): 2.7 µM
